“And” between values parts separate entries of the source, which are not always exact repeats. Identical values can stand only once. Like-named read-outs stand apart in the source and are kept apart here.
Columns and labels:
RPMI 8226 = assay: Cell growth inhibition (resazurin), RPMI 8226; conditions: for EC50: 48 hours drug exposure, mean ± SD where n≥3; for cytotoxicity against RPMI 8226, in words: from EC50 values
[1] = molecular target: T1, trypsin-like activity of purified rabbit muscle 20S proteasome (Oryctolagus cuniculus, UniProt G1SWK8); assay: biochemical
T1 sequence (G1SWK8 1-271): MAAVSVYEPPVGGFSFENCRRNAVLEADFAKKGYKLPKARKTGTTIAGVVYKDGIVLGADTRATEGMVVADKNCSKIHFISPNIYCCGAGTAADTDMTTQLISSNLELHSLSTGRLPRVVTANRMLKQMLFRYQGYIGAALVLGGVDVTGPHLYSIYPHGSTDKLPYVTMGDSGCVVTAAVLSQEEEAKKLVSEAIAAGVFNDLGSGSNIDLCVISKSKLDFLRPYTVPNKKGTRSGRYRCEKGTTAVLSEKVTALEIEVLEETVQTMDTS

NF-κB = assay: NF-κB-mediated luciferase reporter gene assay, HEK293 NF-κB/Luc cells, TNF-α stimulation; format: cell-based, human; conditions: for EC50: Homo sapiens, 1 hr pretreatment, TNF-α 6 hr
Experimental: The HEK293 NF-κB/luciferase reporter cell line is a derivative of the human embryonic kidney cell line (ATCC; CRL-1573) and carries a luciferase reporter gene under the regulation of 5× NF-κB binding sites. […] When performing the luciferase assay, the DMEM basal medium was replaced with phenol-red free DMEM basal medium and the G418 was omitted.
For NF-κB-mediated luciferase assays, HEK293 NF-κB/luciferase cells were seeded at 1.5×10^4 cells/well in 90 μl phenol-red free DMEM complete medium into Corning 3917 white opaque-bottom tissue culture plates. For Formula II-2, Formula II-4, Formula II-5A, and Formula II-18, a 400 μM starting dilution was made in 100% DMSO and this dilution was used to generate a 8-point half log dilution series. […] For Formula II-20, a 2.5 mM or 8 mM starting solution was made in 100% DMSO and the final test concentrations ranged from 6.3 μM to 2.0 nM or 20 μM to 6.3 nM, respectively. The plates were returned to the incubator for 1 hour. After 1 hr pretreatment, 10 μl of a 50 ng/ml TNF-α solution, prepared in the phenol-red free DMEM medium was added, and the plates were incubated for an additional 6 hr.
At the end of the TNF-α stimulation, 100 μl of Steady Lite HTS luciferase reagent (Packard Bioscience) was added to each well and the plates were left undisturbed for 10 min at room temperature before measuring the luciferase activity. The relative luciferase units (RLU) were measured by using a Fusion microplate fluorometer (Packard Bioscience).

U266 = assay: Cell growth inhibition (resazurin), U266; conditions: Homo sapiens, U-266, 48 h, read-out: U266 EC50, Table 2; 48 hours drug exposure
[2] = molecular target: T2, caspase-like activity of purified rabbit muscle 20S proteasome (Oryctolagus cuniculus, UniProt A0A5F9DQW2); assay: In vitro inhibition of 20S proteasome caspase-like activity (Z-LLE-AMC)
T2 sequence (A0A5F9DQW2 1-212): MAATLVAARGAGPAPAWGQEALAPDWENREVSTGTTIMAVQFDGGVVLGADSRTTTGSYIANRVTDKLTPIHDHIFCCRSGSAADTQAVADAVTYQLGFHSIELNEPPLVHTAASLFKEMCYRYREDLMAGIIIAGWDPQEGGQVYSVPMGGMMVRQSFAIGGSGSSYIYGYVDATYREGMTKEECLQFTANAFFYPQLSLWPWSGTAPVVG

[3] = molecular target: T3, chymotrypsin-like activity of purified rabbit muscle 20S proteasome (Oryctolagus cuniculus, UniProt G1T4Q9); assay: In vitro inhibition of 20S proteasome chymotrypsin-like activity (suc-LLVY-AMC)
T3 sequence (G1T4Q9 1-263): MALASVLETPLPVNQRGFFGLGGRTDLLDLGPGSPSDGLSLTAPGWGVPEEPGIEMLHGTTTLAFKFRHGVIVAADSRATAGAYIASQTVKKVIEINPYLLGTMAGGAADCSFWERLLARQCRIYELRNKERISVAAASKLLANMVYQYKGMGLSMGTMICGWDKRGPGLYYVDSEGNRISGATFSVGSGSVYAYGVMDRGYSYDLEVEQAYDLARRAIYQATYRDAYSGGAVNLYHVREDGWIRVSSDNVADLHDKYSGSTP

[4] = molecular target: T1, trypsin-like activity of purified rabbit muscle 20S proteasome; assay: In vitro inhibition of 20S proteasome trypsin-like activity (Boc-LRR-AMC); conditions: under the conditions tested
[5] = Homo sapiens, RPMI-8226, 48 h, read-out: RPMI 8226 EC50, Table 2
[6] = HEK293, read-out: EC50, NF-κB-mediated luciferase reporter gene assay, Table 5, values in μM
[7] = EC50 Caspase-like, Table 6, values in μM
[8] = read-out: RPMI 8226 EC50, Table 2
[9] = EC50 Chymotrypsin-like, Table 6, values in nM
[10] = EC50 values, chymotrypsin-like activity, summary of Table 6
[11] = EC50 values, caspase-like activity, range in mixed units, summary of Table 6, range from nM to μM

Row | SMILES | EC50 (RPMI 8226; [5]) | EC50 [1] | EC50 [2, 7] | EC50 (RPMI 8226; [8]) | cytotoxicity against RPMI 8226, in words (RPMI 8226) | EC50 [3, 9] | EC50 [3, 10] | other results
1 | C[C@@H]1C(=O)N[C@@]2([C@@H](O)[C@@H]3C=CCCC3)C(=O)O[C@@]12C [Formula II-28] | > 20 µM | > 20 µM | > 20 µM |  |  |  |  | EC50 (NF-κB; [6]): > 20 µM; EC50 (U266): > 20 µM; EC50 ([3]; EC50 Chymotrypsin-like, Table 6, values in μM): 3.2 µM and 3.3 µM; EC50 ([3]; EC50 values, chymotrypsin-like activity, range or bound stated in text, summary of Table 6): 1.4 to 10.6 µM
2 | C[C@@]12OC(=O)[C@]1(C(=O)C1=CC(O)CCC1)NC(=O)[C@]2(C)CCCl (some centres unmarked) [Formula II-31] | > 20 µM |  |  |  |  |  |  | 
3 | C[C@@]12OC(=O)[C@]1(C(=O)C1=CC(O)CCC1)NC(=O)[C@]2(C)CCCl (some centres unmarked) [Formula II-32] |  |  |  | > 20 µM |  |  |  | 
4 | C[C@@]12OC(=O)[C@]1([C@@H](O)[C@@H]1C=CCCC1)NC(=O)[C@@H]2CCN=C=S [Formula II-38] | 2.6 µM |  |  | 1.8 µM | cytotoxic | 0.0034 ± 0.0002 µM | 0.002 to 0.011 µM | 
5 | COC(=O)CCSC(=O)[C@]1([C@@H](O)[C@@H]2C=CCCC2)NC(=O)[C@H](CCCl)[C@]1(C)O [Formula II-44] | 0.012 µM | 0.055 µM and 0.054 µM | 1.4 µM | 0.0088 µM | cytotoxic | 0.011 µM and 0.0087 µM | 0.002 to 0.011 µM | EC50 (NF-κB; HEK293, read-out: EC50, NF-κB-mediated luciferase reporter gene assay, Table 5, values in nM): 0.017 ± 0.004 µM; effect on luciferase activity upon TNF-α stimulation, in words (NF-κB; pretreatment of NF-κB/Luc 293 cells): dose-dependent decrease; EC50 [2, 11]: 0.956 to 8.7 µM; inhibition of the trypsin-like activity of the 20S proteasome, in words [4]: able to inhibit
6 | CC[C@H]1C(=O)N[C@](C(=O)SCCC(=O)OC)([C@@H](O)[C@@H]2C=CCCC2)[C@@]1(C)O [Formula II-47] | 8 ± 3.4 µM |  |  |  | cytotoxic | 0.05 ± 0.01 µM | 0.013 to 0.088 µM | 
7 | COC(=O)C(CSC(=O)[C@]1([C@@H](O)[C@@H]2C=CCCC2)NC(=O)[C@H](CCCl)[C@]1(C)O)NC(C)=O (some centres unmarked) [Formula II-50] | 0.01 µM |  |  |  | cytotoxic |  |  | 
8 | COC(=O)CCSC(=O)C1(C(O)C2C=CCCC2)NC(=O)C2CCOC21C (centres unmarked) [Formula VI-1A] | 8.4 µM | 3.1 µM and 3 µM | 7.9 µM and 8.7 µM | 7.8 µM | cytotoxic | 0.274 µM and 0.207 µM | 0.207 to 0.964 µM | EC50 (NF-κB; [6]): > 20 µM; EC50 [2, 11]: 0.956 to 8.7 µM; inhibition of the trypsin-like activity of the 20S proteasome, in words [4]: able to inhibit
